Source: ChEMBL document CHEMBL3124884, “Leporizines A-C: epithiodiketopiperazines isolated from an Aspergillus species” (J Nat Prod, 2013)
The source made the active and inactive calls. The rule behind the calls is not given here.

How the values were obtained:
[1] = tested on: Cystic fibrosis transmembrane conductance regulator (Homo sapiens), P13569 [F508del]; assay: Activity at CFTR F508del mutant (unknown origin) expressed in Fischer rat thyroid epithelial cells co-expressing YFP-H148Q/I152L assessed as loss of baseline transepithelial resistance at 10 uM after 16 to 20 mins by conductance corrector assay; format: cell-based; settings: Epithelial cell
[2] = tested on: Cystic fibrosis transmembrane conductance regulator (Homo sapiens), P13569 [F508del]; assay: Activity at CFTR F508del mutant (unknown origin) expressed in Fischer rat thyroid epithelial cells co-expressing YFP-H148Q/I152L assessed as loss of baseline transepithelial resistance at 2.5 to 20 uM after 16 to 20 mins by conductance corrector assay; format: cell-based; settings: Epithelial cell
[3] = tested on: Cystic fibrosis transmembrane conductance regulator (Homo sapiens), P13569 [F508del]; assay: Activity at CFTR F508del mutant (unknown origin) expressed in Fischer rat thyroid epithelial cells co-expressing YFP-H148Q/I152L assessed as forskolin/PG-01-induced increase in conductance reversible effect at 2.5 to 20 uM after 16 to 20 mins by conductance corrector assay; format: cell-based; settings: Epithelial cell
HepG2 = assay: Cytotoxicity against human HepG2 cells; format: cell-based
[4] = tested on: Cystic fibrosis transmembrane conductance regulator (Homo sapiens), P13569 [F508del]; assay: Activity at CFTR F508del mutant (unknown origin) expressed in Fischer rat thyroid epithelial cells co-expressing YFP-H148Q/I152L assessed as forskolin/PG-01-induced increase in conductance reversible effect at 10 to 20 uM after 16 to 20 mins by conductance corrector assay in presence of CFInh-172; format: cell-based; settings: Epithelial cell
[5] = tested on: Cystic fibrosis transmembrane conductance regulator (Homo sapiens), P13569 [F508del]; assay: Activity at CFTR F508del mutant (unknown origin) expressed in Fischer rat thyroid epithelial cells co-expressing YFP-H148Q/I152L assessed as loss of baseline transepithelial resistance at >5 uM after 16 to 20 mins by conductance corrector assay; format: cell-based; settings: Epithelial cell
[6] = tested on: Cystic fibrosis transmembrane conductance regulator (Homo sapiens), P13569 [F508del]; assay: Activity at CFTR F508del mutant (unknown origin) expressed in Fischer rat thyroid epithelial cells co-expressing YFP-H148Q/I152L assessed as forskolin/PG-01-induced increase in conductance reversible effect at >5 uM after 16 to 20 mins by conductance corrector assay; format: cell-based; settings: Epithelial cell
[7] = tested on: Cystic fibrosis transmembrane conductance regulator (Homo sapiens), P13569 [F508del]; assay: Activity at CFTR F508del mutant (unknown origin) expressed in Fischer rat thyroid epithelial cells co-expressing YFP-H148Q/I152L assessed as forskolin/PG-01-induced increase in conductance reversible effect at <= 5 uM after 16 to 20 hrs by conductance corrector assay; settings: Epithelial cell

Chain of Cystic fibrosis transmembrane conductance regulator (Homo sapiens), P13569 [F508del] (P13569 as listed by the source): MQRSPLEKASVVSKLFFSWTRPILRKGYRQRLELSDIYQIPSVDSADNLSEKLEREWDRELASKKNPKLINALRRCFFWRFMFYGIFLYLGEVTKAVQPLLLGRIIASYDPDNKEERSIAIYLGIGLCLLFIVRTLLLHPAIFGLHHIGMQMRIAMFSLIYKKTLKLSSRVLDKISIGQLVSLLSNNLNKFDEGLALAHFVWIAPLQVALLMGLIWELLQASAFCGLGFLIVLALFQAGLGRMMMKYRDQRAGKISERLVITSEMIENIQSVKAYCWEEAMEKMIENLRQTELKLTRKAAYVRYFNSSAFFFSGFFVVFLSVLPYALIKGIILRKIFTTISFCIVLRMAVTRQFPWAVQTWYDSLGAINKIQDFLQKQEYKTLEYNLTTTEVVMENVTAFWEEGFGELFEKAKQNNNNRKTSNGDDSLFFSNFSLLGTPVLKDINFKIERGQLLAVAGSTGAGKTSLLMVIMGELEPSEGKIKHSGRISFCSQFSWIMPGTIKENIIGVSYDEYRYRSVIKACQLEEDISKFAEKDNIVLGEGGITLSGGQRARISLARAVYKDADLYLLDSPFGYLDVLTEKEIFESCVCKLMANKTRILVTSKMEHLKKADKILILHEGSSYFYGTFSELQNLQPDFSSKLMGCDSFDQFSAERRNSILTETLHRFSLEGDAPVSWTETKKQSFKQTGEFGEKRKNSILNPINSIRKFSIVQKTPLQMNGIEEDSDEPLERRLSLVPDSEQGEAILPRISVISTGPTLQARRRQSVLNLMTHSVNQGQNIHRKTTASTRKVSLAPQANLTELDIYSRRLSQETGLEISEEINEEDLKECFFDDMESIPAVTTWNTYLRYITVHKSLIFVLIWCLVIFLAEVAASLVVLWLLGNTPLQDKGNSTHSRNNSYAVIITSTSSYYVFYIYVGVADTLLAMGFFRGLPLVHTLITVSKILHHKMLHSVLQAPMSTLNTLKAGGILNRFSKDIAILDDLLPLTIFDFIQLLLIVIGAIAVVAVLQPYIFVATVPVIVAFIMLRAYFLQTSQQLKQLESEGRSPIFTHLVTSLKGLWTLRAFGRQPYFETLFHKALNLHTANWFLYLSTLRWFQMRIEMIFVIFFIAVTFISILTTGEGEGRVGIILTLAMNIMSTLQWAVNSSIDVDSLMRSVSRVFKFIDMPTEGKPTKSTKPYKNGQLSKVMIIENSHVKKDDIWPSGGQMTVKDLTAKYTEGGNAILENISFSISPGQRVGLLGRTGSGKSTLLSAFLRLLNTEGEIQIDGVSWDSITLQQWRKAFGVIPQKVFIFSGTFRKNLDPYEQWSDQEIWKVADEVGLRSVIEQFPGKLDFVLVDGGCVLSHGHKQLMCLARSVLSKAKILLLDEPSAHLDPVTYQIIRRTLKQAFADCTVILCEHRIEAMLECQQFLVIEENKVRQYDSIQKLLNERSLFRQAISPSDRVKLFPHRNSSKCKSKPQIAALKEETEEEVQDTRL

Activity [1]	Activity [2]	Activity [3]	Activity [4]	Activity [5]	Activity [6]	Activity [7]	Compound	Activity (HepG2)
Active							COc1ccc(Cl)cc1Nc1nc(-c2sc(NC(=O)C(C)(C)C)nc2C)cs1	
	inactive	inactive					CS[C@]12C(=O)N3[C@H]4Nc5ccccc5C4(O)[C@@H](O)[C@@]3(SC)C(=O)N1C1CC3=C(C(=O)C1(O)[C@H]2O)C(C)(C)[C@H](C)O3 (some centres undefined)	Non-toxic
			Active	Active	Active	inactive	C[C@@H]1OC2=C(C(=O)C3(O)C(C2)N2C(=O)[C@@]45SSS[C@@]2(C(=O)N4[C@H]2Nc4ccccc4C2(O)[C@H]5O)[C@@H]3O)C1(C)C (some centres undefined)	Toxic
			Active	Active	Active	inactive	C[C@@H]1OC2=C(C(=O)C3(O)C(C2)N2C(=O)[C@@]45SS[C@@]2(C(=O)N4[C@H]2Nc4ccccc4C2(O)[C@H]5O)[C@@H]3O)C1(C)C (some centres undefined)	Toxic
